The Ki is a dissociation constant, usually derived from enzyme kinetics or from competition with a known ligand.

The values that follow come from patent US7528138B2, “Pyrazolo[1,5-a]pyrimidines useful as inhibitors of protein kinases” (Vertex Pharmaceuticals Incorporated, priority 2004, dated 2009).

Experiment [1] has as its target T1, Itk (Homo sapiens, UniProt Q08881).
T1 sequence (Q08881 1-620): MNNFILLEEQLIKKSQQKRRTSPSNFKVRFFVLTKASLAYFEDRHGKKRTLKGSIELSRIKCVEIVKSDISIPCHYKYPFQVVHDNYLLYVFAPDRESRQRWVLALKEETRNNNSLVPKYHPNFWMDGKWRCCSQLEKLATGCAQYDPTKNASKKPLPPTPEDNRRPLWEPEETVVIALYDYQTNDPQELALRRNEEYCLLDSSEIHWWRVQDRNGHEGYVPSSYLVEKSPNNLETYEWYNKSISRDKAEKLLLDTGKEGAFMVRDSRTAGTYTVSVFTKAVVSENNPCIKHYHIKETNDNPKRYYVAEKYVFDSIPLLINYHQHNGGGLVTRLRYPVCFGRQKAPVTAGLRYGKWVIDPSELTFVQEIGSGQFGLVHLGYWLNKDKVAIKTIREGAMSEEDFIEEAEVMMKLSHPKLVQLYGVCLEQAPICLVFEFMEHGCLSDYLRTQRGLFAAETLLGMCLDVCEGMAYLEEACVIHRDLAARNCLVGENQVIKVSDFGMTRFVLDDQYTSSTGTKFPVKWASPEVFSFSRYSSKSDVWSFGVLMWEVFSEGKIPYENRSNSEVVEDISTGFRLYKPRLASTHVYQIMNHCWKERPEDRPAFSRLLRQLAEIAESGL
The experiment in a line: ITK Inhibition Assay (Radiometric), radioactive-phosphate incorporation. The format is biochemical. The conditions noted are these: enzyme inhibition data (Ki), Table 11; radiometric or UV assay not stated. In outline: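 Radiometric 33P incorporation into SAM68 peptide (D332-443) with filter capture and scintillation counting; 10 min pre-incubation then 10 min reaction at 25° C. IC50 format: 30 nM Itk, 15 μM ATP, 2 μM peptide, HEPES pH 7.5. Ki(app) format: 50 nM Itk, 7.5 μM ATP, 3 μM peptide, MOPS pH 7.0.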

Experiment [2] deals with c-Met (Homo sapiens, UniProt P08581). The experiment is described as follows: c-Met Inhibition Assay, coupled enzyme system. The format is biochemical. The conditions noted are these: enzyme inhibition data (Ki), Table 11. In outline: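 Pyruvate kinase/lactate dehydrogenase-coupled NADH assay in HEPES pH 7.5 with 80 nM c-Met, 200 μM ATP and 10 μM polyGluTyr at 30° C. Compound (0.006–12.5 μM final, 12-point) preincubated 10 min before ATP start; rates over 10 min gave Ki.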
Chain of c-Met (P08581 25-1390): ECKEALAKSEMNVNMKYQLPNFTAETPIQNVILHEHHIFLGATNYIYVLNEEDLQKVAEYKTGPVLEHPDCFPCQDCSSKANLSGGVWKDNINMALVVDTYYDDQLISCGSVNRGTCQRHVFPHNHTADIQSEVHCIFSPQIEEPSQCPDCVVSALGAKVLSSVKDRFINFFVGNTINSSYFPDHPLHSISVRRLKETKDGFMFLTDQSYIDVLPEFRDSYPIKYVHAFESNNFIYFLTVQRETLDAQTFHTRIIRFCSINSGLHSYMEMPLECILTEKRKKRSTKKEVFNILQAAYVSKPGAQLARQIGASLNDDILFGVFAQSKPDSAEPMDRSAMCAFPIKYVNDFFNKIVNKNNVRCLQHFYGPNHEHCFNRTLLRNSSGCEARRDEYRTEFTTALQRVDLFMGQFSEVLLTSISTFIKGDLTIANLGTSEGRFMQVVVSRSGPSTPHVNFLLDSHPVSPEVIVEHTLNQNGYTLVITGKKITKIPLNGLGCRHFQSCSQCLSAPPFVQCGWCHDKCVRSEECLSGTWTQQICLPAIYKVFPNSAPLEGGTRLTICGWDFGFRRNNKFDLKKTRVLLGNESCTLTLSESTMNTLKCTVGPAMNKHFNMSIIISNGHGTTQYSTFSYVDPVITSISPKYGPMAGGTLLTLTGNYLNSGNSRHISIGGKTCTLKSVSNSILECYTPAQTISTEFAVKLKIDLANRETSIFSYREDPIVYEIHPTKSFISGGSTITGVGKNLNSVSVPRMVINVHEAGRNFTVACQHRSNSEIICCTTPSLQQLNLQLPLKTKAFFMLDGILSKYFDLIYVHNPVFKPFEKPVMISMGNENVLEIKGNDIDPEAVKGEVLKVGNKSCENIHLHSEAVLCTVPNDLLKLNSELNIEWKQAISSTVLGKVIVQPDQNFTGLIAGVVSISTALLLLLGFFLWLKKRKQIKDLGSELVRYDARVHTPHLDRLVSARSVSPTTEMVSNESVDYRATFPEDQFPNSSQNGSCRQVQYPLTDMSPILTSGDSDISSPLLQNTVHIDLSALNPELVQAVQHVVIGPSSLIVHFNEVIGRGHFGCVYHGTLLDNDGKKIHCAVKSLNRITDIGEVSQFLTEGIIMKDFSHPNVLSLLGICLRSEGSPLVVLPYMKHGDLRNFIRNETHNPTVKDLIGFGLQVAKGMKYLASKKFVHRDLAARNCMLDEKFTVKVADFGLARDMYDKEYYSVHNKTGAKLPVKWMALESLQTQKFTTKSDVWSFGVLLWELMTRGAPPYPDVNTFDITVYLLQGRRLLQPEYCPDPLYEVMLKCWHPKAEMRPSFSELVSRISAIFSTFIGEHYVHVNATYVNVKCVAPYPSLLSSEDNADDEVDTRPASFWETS

For the compound `CCN(CC)C(=O)c1ccc(-c2cnc3c(-c4ccccn4)c(N)nn3c2)nc1` [Compound V-98], the inhibitory constant (Ki) in experiment [1] and in experiment [2] was < 500 nM throughout.

For the compound `CN1CCC(N(C)C(=O)c2cccc(-c3cnc4c(-c5ccccn5)c(N)nn4c3)n2)CC1` [Compound V-101], the Ki is 500 to 5000 nM in experiment [1] and < 500 nM in experiment [2].

For the compound `Cc1ccc(-c2c(N)nn3cc(-c4ccncc4)cnc23)nc1` [Compound V-132], the Ki in experiment [1] was 500 to 5000 nM; in experiment [2], < 500 nM.

For the compound `Nc1nn2cc(-c3ccc(C(=O)N4CCC[C@H]4CN4CCCC4)cn3)cnc2c1-c1ccccn1` [Compound V-177], the inhibitory constant (Ki) in experiment [1] and in experiment [2] was < 500 nM each time.

For the compound `Cc1cccc(-c2c(N)nn3cc(-c4ccncc4)cnc23)n1` [Compound V-178], the figures for the inhibition constant Ki in experiment [1] and in experiment [2] were < 500 nM and 500 to 5000 nM, respectively.

In the case of `CN(C)CCN(C)C(=O)c1ccc(-c2cnc3c(-c4ccccn4)c(N)nn3c2)cc1` [Compound V-188], the Ki in experiment [1] and in experiment [2] was < 500 nM each time.

As for `Nc1nn2cc(-c3cccc(C(=O)N4CCC(N)CC4)n3)cnc2c1-c1ccccn1` [Compound V-104], the inhibition constant (Ki) in experiment [1] is 500 to 5000 nM; in experiment [2], < 500 nM.

Turning to `CNCCN(C)C(=O)c1cccc(-c2cnc3c(-c4ccccn4)c(N)nn3c2)c1` [Compound V-189], the Ki in experiment [1] and in experiment [2] was < 500 nM each time.

Turning to `COc1ccccc1Nc1cc(-c2c(N)nn3cc(-c4ccncc4)cnc23)ncn1` [Compound V-242], the inhibition constant (Ki) in experiment [1] and in experiment [2] was < 500 nM in each case.

Take `Nc1nn2cc(-c3ccc(N4CCC(N)CC4)nc3)cnc2c1-c1ccccn1` [Compound V-165]: the Ki in experiment [1] and in experiment [2] was < 500 nM throughout.

For the compound `Nc1nn2cc(-c3cccc(CN4CCNCC4)c3)cnc2c1-c1ccccn1` [Compound V-223], the inhibition constant Ki in experiment [1] and in experiment [2] was < 500 nM in each case.

As to `CS(=O)(=O)Nc1cccc(-c2cnc3c(-c4ccccn4)c(N)nn3c2)c1` [Compound V-18], the inhibition constant Ki in experiment [1] and in experiment [2] was < 500 nM in each case.

On to `Nc1nn2cc(-c3cccc(C(=O)N4CCCC4CO)n3)cnc2c1-c1ccccn1` (stereo not drawn) [Compound V-112], for which the inhibition constant (Ki) in experiment [1] is 500 to 5000 nM; in experiment [2] it was < 500 nM.

As to `Nc1nn2cc(-c3ccc(CN4CC[C@H](N)C4)cc3)cnc2c1-c1ccccn1` [Compound V-233], the inhibitory constant (Ki) in experiment [1] and in experiment [2] was < 500 nM each time.

In the case of `C#CCN(C)C(=O)c1cccc(-c2cnc3c(-c4ccccn4)c(N)nn3c2)n1` [Compound V-106], the Ki is 500 to 5000 nM in experiment [1] and < 500 nM in experiment [2].

On to `CCN(C)C(=O)c1cccc(-c2cnc3c(-c4ccccn4)c(N)nn3c2)n1` [Compound V-115], for which the Ki in experiment [1] is 500 to 5000 nM; in experiment [2], < 500 nM.

Turning to `NC1CCN(Cc2cccc(C3=CN4NC(N)C(c5ccccn5)=C4N=C3)c2)CC1` (stereo not drawn) [Compound V-229], the inhibition constant (Ki) in experiment [1] and in experiment [2] was < 500 nM in each case.

With `CN(C)CCNc1ccc(-c2cnc3c(-c4ccccn4)c(N)nn3c2)cn1` [Compound V-159], the inhibition constant (Ki) in experiment [1] and in experiment [2] was < 500 nM each time.

For the compound `COCCCN1CCN(C(=O)c2ccc(-c3cnc4c(-c5ccccn5)c(N)nn4c3)nc2)CC1` [Compound V-129], the Ki in experiment [1] and in experiment [2] was < 500 nM in each case.

As for `CC(C)CNc1cc(-c2c(N)nn3cc(-c4ccncc4)cnc23)ncn1` [Compound V-185], the inhibition constant Ki in experiment [1] and in experiment [2] was < 500 nM in each case.

With `CC(C)Nc1cc(-c2c(N)nn3cc(-c4ccncc4)cnc23)ncn1` [Compound V-182], the Ki in experiment [1] and in experiment [2] was < 500 nM in each case.

For `CN(CCCN)C(=O)c1ccc(-c2cnc3c(-c4ccccn4)c(N)nn3c2)nc1` [Compound V-130], the Ki in experiment [1] and in experiment [2] was < 500 nM each time.

As for `NCc1ccc(-c2cnc3c(-c4ccccn4)c(N)nn3c2)cc1` [Compound V-195], the Ki in experiment [1] and in experiment [2] was < 500 nM each time.

As to `CN(C)Cc1cccc(-c2cnc3c(-c4ccccn4)c(N)nn3c2)c1` [Compound V-215], the Ki in experiment [1] and in experiment [2] was < 500 nM in each case.

As for `CNCCCN(C)Cc1ccc(-c2cnc3c(-c4ccccn4)c(N)nn3c2)cc1` [Compound V-230], the Ki in experiment [1] and in experiment [2] was < 500 nM each time.

As to `NC1NN2C=C(c3cccc(CN4CC[C@@H](N)C4)c3)C=NC2=C1c1ccccn1` (stereo partly drawn) [Compound V-226], the inhibitory constant (Ki) in experiment [1] and in experiment [2] was < 500 nM throughout.

Take `Nc1nn2cc(-c3ccncc3)cnc2c1-c1cc(Nc2ccccc2)ncn1` [Compound V-241]: the inhibition constant Ki in experiment [1] and in experiment [2] was < 500 nM throughout.

For `Nc1nn2cc(-c3cccc(CN4CCOCC4)c3)cnc2c1-c1ccccn1` [Compound V-225], the figures for the Ki in experiment [1] and in experiment [2] were 500 to 5000 nM and < 500 nM, respectively.

In the case of `Nc1nn2cc(-c3ccncc3)cnc2c1-c1cc(N2CCCCC2)ncn1` [Compound V-179], the Ki in experiment [1] and in experiment [2] was < 500 nM in each case.

Turning to `Nc1nn2cc(-c3ccc(CN4CCOCC4)cc3)cnc2c1-c1ccccn1` [Compound V-208], the Ki is < 500 nM in experiment [1] and 500 to 5000 nM in experiment [2].

Turning to `Nc1nn2cc(-c3ccc4[nH]ccc4c3)cnc2c1-c1ccccn1` [Compound V-212], the inhibition constant Ki in experiment [1] and in experiment [2] was < 500 nM each time.

Consider `Nc1nn2cc(-c3ccc(CO)cc3)cnc2c1-c1ccccn1` [Compound V-194], for which the Ki in experiment [1] and in experiment [2] was < 500 nM each time.

In the case of `CCN1CCN(c2ccc(-c3cnc4c(-c5ccccn5)c(N)nn4c3)cn2)CC1` [Compound V-166], the inhibitory constant (Ki) in experiment [1] and in experiment [2] was < 500 nM in each case.

For the compound `CC(C)CN(C)C(=O)c1ccc(-c2cnc3c(-c4ccccn4)c(N)nn3c2)nc1` [Compound V-97], the Ki in experiment [1] and in experiment [2] was < 500 nM in each case.

For the compound `Nc1nn2cc(-c3ccncc3)cnc2c1-c1cc(NC2CCCCC2)ncn1` [Compound V-183], the Ki in experiment [1] and in experiment [2] was < 500 nM in each case.

Consider `Nc1nn2cc(-c3ccc(CN4CC[C@@H](N)C4)cc3)cnc2c1-c1ccccn1` [Compound V-231], for which the Ki in experiment [1] and in experiment [2] was < 500 nM throughout.

Consider `Nc1nn2cc(-c3ccc(CNC4CCNCC4)cc3)cnc2c1-c1ccccn1` [Compound V-232], for which the Ki in experiment [1] and in experiment [2] was < 500 nM throughout.

Take `CNC(=O)c1cnc2c(-c3ccccn3)c(N)nn2c1` [Compound V-204]: the Ki in experiment [1] and in experiment [2] was 500 to 5000 nM in each case.

Consider `Nc1nn2cc(-c3cccc(C(=O)N4CCC[C@H]4CN4CCCC4)n3)cnc2c1-c1ccccn1` [Compound V-154], for which the values for the Ki in experiment [1] and in experiment [2] were 500 to 5000 nM and < 500 nM, respectively.

Turning to `COc1ccc(-c2cn3nc(N)c(-c4ccccn4)c3nc2C)cc1` [Compound V-216], the Ki in experiment [1] and in experiment [2] was 500 to 5000 nM throughout.

In the case of `COC(=O)C1CCCN1C(=O)c1cccc(-c2cnc3c(-c4ccccn4)c(N)nn3c2)n1` (stereo not drawn) [Compound V-139], the results for the Ki in experiment [1] and in experiment [2] were 500 to 5000 nM and < 500 nM, respectively.

For the compound `CCN(CC)CCN(C)C(=O)c1cccc(-c2cnc3c(-c4ccccn4)c(N)nn3c2)n1` [Compound V-124], the values for the Ki in experiment [1] and in experiment [2] were 500 to 5000 nM and < 500 nM, respectively.

As to `CCN(CC)C(=O)c1cccc(-c2cnc3c(-c4ccccn4)c(N)nn3c2)n1` [Compound V-127], the inhibition constant Ki in experiment [1] is 500 to 5000 nM; in experiment [2] it was < 500 nM.

Regarding `CC(C)(O)C#Cc1cnc2c(-c3ccccn3)c(N)nn2c1` [Compound V-237], the Ki in experiment [1] and in experiment [2] was < 500 nM in each case.

For the compound `Nc1nn2cc(-c3cccc(CO)c3)cnc2c1-c1ccccn1` [Compound V-221], the inhibition constant (Ki) in experiment [1] was 500 to 5000 nM; in experiment [2] it was < 500 nM.

For the compound `Nc1nn2cc(C(=O)NC3CCCNC3)cnc2c1-c1ccccn1` (stereo not drawn) [Compound V-206], the Ki in experiment [1] and in experiment [2] was 500 to 5000 nM throughout.

For the compound `CNCc1ccc(-c2cnc3c(-c4ccccn4)c(N)nn3c2)cc1` [Compound V-236], the Ki in experiment [1] and in experiment [2] was < 500 nM each time.

Regarding `CN(CCCN)C(=O)c1cccc(-c2cnc3c(-c4ccccn4)c(N)nn3c2)n1` [Compound V-155], the Ki in experiment [1] and in experiment [2] was < 500 nM each time.

Take `CC(C)CN(C)c1cc(-c2c(N)nn3cc(-c4ccncc4)cnc23)ncn1` [Compound V-243]: the inhibition constant Ki in experiment [1] and in experiment [2] was < 500 nM each time.

Take `CN1CCCN(c2ccc(-c3cnc4c(-c5ccccn5)c(N)nn4c3)cn2)CC1` [Compound V-160]: the Ki was 500 to 5000 nM in experiment [1] and < 500 nM in experiment [2].

On to `Nc1nn2cc(-c3ccc(N4CCC[C@@H]4CN4CCCC4)nc3)cnc2c1-c1ccccn1` [Compound V-176], for which the inhibition constant Ki in experiment [1] and in experiment [2] was < 500 nM in each case.
